Measurements published in patent publication US12523664B2, “Sensor chip and methods thereof” (NATIONAL UNIVERSITY OF SINGAPORE, priority 2019, dated 2026).
“Also recorded” adds a separate entry of the source.

Biological target: amylogenic protein (Homo sapiens, UniProt P05067)
Experiment: Protein aggregation with or without inhibitor, aggregate size by dynamic light scattering
Assay type: biochemical
Conditions: 10 μM inhibitor added before 1 h incubation with agitation
Description: Aggregate size determination. Hydrodynamic diameter of amylogenic protein and BSA aggregates were determined by dynamic light scattering analysis (Zetasizer Nano ZSP, Malvern). 3×14 measurement runs were performed at 4° C. Z-average diameter and polydispersity were analyzed. For every measurement, the auto-correlation function and polydispersity index were monitored to ensure sample quality for size determination.
Protein aggregation. Lyophilized amylogenic protein was resuspended in NaOH (60 mM, 4° C.), sonicated, and pH adjusted to pH 7.4 in PBS. The protein was immediately filtered through a 0.2-μm membrane filter (Millipore) and the filtrate was used as the small initial aggregates. For preparation of the bigger aggregates, the protein was treated as described above and incubated with agitation for 1 h to induce further aggregation. […] Aggregate size determination was performed at the end of the incubation.

Sequence of amylogenic protein (P05067 672-713 limits assumed): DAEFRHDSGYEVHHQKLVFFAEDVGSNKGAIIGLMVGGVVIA

CN(C)c1ccc2nc3ccc(=[N+](C)C)cc-3sc2c1 [inhibitor, methylene blue]
increase in size as a result of spontaneous protein aggregation: reduced spontaneous protein aggregation; also recorded: minimal
